Assay results published in patent US9604933B2, “Pyrazolochalcones as potential anticancer agents” (COUNCIL OF SCIENTIFIC AND INDUSTRIAL RESEARCH, priority 2013, dated 2017).
Read-outs that look alike come from different tables or passages of the source.

Key:
SR = experiment: NCI SRB cytotoxicity, leukemia SR; assay type: cell-based; settings: Homo sapiens, 48 h exposure
Protocol: (§1) The pyrazolochalcones (7e, 8e, 10e, 11e, 12e, 13e and 8f) have been tested against fifty nine human tumor cell lines derived from nine cancer types (leukemia, non-small cell lung cancer, colon cancer, CNS cancer, melanoma, ovarian cancer, renal cancer, prostate cancer and breast cancer) as per the NCI protocol. For each compound, dose response curves for individual cell lines have been measured at a minimum of five concentrations at 10 fold dilutions. A protocol of 48 h continuous drug exposure has been used, and a sulforhodamine B (SRB) protein assay has been used to estimate cell viability or growth. The concentration for 50% cell growth inhibition (GI50), 50% cell death (LC50, 50% growth) and total cell growth inhibition (TGI, 0% growth) values were tabulated (Table-1). DMSO was used as control to calculate the values of GI50, LC50 and TGI. The compounds 7e, 8e, 10e, 11e, 12e, 13e and 8f has been evaluated for their in vitro cytotoxicity in […] cell lines from nine human cancer types of leukemia (K-562, SR), non-small cell lung (Hop-62, NCI-H226, NCI-H522), colon (HCT-116, HCT-15, HCC-2998), CNS (SF-539), melanoma (SK-MEL-5, UACC-62, M14), ovarian (IGROV1), renal (A498), prostate (PC3) and breast (BT-549, MDA-MB-435, HS578T) origin. The results are expressed as percent of cell growth determined relative to that of untreated control cells (Table 2).

MDA-MB-231/ATCC = experiment: NCI SRB cytotoxicity, breast MDA-MB-231/ATCC; assay type: cell-based; settings: Homo sapiens, 48 h exposure
Protocol: as §1

MDA-MB-435 = experiment: NCI SRB cytotoxicity, breast panel MDA-MB-435; assay type: cell-based; settings: Homo sapiens, 48 h exposure
Protocol: as §1

SN12C = experiment: NCI SRB cytotoxicity, renal SN12C; assay type: cell-based; settings: Homo sapiens, 48 h exposure
Protocol: as §1

HCC-2998 = experiment: NCI SRB cytotoxicity, colon HCC-2998; assay type: cell-based; settings: Homo sapiens, 48 h exposure
Protocol: as §1

OVCAR-5 = experiment: NCI SRB cytotoxicity, ovarian OVCAR-5; assay type: cell-based; settings: Homo sapiens, 48 h exposure
Protocol: as §1

SW-620 = experiment: NCI SRB cytotoxicity, colon SW-620; assay type: cell-based; settings: Homo sapiens, 48 h exposure
Protocol: as §1

UACC-257 = experiment: NCI SRB cytotoxicity, melanoma UACC-257; assay type: cell-based; settings: Homo sapiens, 48 h exposure
Protocol: as §1

A498 = experiment: NCI SRB cytotoxicity, renal A498; assay type: cell-based; settings: Homo sapiens, 48 h exposure
Protocol: as §1

Ovarian = experiment: NCI SRB cytotoxicity, ovarian panel average; assay type: cell-based, human; settings: average of cell lines; for GI50 / CC50: Homo sapiens; for GI50: read-out: Log10 GI50 (concentration in mol/L causing 50% growth inhibition) (converted); for CC50: read-out: Log10 LC50 (concentration in mol/L causing 50% cell death) (converted)
Protocol: as §1
(§2) Each cancer type represents the average of six to eight different cancer cell lines.

NCI-H460 = experiment: NCI SRB cytotoxicity, non-small cell lung NCI-H460; assay type: cell-based; settings: Homo sapiens, 48 h exposure
Protocol: as §1

human tumor cell lines = experiment: NCI SRB cytotoxicity, all fifty nine human tumor cell lines; assay type: cell-based; parameters: Log10 TGI mean graph midpoint (MG_MID): unit not given here; settings: for GI50: Homo sapiens; for cytotoxicity: against cancer cell lines, in words; for LC50: read-out: Log10 LC50 mean graph midpoint (MG_MID) (converted)
Protocol: as §1
The mean graph midpoint values of Log10 TGI and Log10 LC50 as well as Log10 GI50 for compounds 7e, 8e, 10e, 11e, 12e, 13e and 8f is listed in Table-3. […] The mean graph mid points of Log10 TGI and Log10, LC50 have shown similar pattern to the log10 GI50 mean graph mid points.

HOP-62 = experiment: NCI SRB cytotoxicity, non-small cell lung HOP-62; assay type: cell-based; settings: Homo sapiens, 48 h exposure
Protocol: as §1

HS 578T = experiment: NCI SRB cytotoxicity, breast HS 578T; assay type: cell-based; settings: Homo sapiens, 48 h exposure
Protocol: as §1

KM12 = experiment: NCI SRB cytotoxicity, colon KM12; assay type: cell-based; settings: Homo sapiens, 48 h exposure
Protocol: as §1

A549/ATCC = experiment: NCI SRB cytotoxicity, non-small cell lung A549/ATCC; assay type: cell-based; settings: Homo sapiens, 48 h exposure
Protocol: as §1

TK-10 = experiment: NCI SRB cytotoxicity, renal TK-10; assay type: cell-based; settings: Homo sapiens, 48 h exposure
Protocol: as §1

OVCAR-4 = experiment: NCI SRB cytotoxicity, ovarian OVCAR-4; assay type: cell-based; settings: Homo sapiens, 48 h exposure
Protocol: as §1

SF-268 = experiment: NCI SRB cytotoxicity, CNS SF-268; assay type: cell-based; settings: Homo sapiens, 48 h exposure
Protocol: as §1

UACC-62 = experiment: NCI SRB cytotoxicity, melanoma UACC-62; assay type: cell-based; settings: Homo sapiens, 48 h exposure
Protocol: as §1

HOP92 = experiment: NCI SRB cytotoxicity, non-small cell lung HOP92; assay type: cell-based; settings: Homo sapiens, HOP-92, 48 h exposure
Protocol: as §1

CNS = experiment: NCI SRB cytotoxicity, CNS panel average; assay type: cell-based, human; settings: average of cell lines; for GI50 / LC50: Homo sapiens; for GI50: read-out: Log10 GI50 (concentration in mol/L causing 50% growth inhibition) (converted); for LC50: read-out: Log10 LC50 (concentration in mol/L causing 50% cell death) (converted)
Protocol: as §1, §2

RPMI-8226 = experiment: NCI SRB cytotoxicity, leukemia RPMI-8226; assay type: cell-based; settings: Homo sapiens, 48 h exposure
Protocol: as §1

NCI-H226 = experiment: NCI SRB cytotoxicity, non-small cell lung NCI-H226; assay type: cell-based; settings: Homo sapiens, 48 h exposure
Protocol: as §1

Leukemia = experiment: NCI SRB cytotoxicity, leukemia panel average; assay type: cell-based, human; settings: average of cell lines; for GI50 / CC50: Homo sapiens; for GI50: read-out: Log10 GI50 (concentration in mol/L causing 50% growth inhibition) (converted); for CC50: read-out: Log10 LC50 (concentration in mol/L causing 50% cell death) (converted)
Protocol: as §1, §2

NCI-H23 = experiment: NCI SRB cytotoxicity, non-small cell lung NCI-H23; assay type: cell-based; settings: Homo sapiens, 48 h exposure
Protocol: as §1

CAKI-1 = experiment: NCI SRB cytotoxicity, renal CAKI-1; assay type: cell-based; settings: Homo sapiens, 48 h exposure
Protocol: as §1

HCT-15 = experiment: NCI SRB cytotoxicity, colon HCT-15; assay type: cell-based; settings: Homo sapiens, 48 h exposure
Protocol: as §1

DU-145 = experiment: NCI SRB cytotoxicity, prostate DU-145; assay type: cell-based; settings: Homo sapiens, 48 h exposure
Protocol: as §1

[1] = across fifty nine cell lines in nine cell panels, read-out: GI50 value range
[2] = against human tumor cell lines, read-out: Log10 GI50 mean graph midpoint (MG_MID) (converted)

SMILES	GI50 (SR) [nM]	GI50 (MDA-MB-231/ATCC) [nM]	GI50 (MDA-MB-435) [nM]	GI50 (SN12C) [nM]	GI50 (HCC-2998) [nM]	GI50 (OVCAR-5) [nM]	GI50 (SW-620) [nM]	GI50 (UACC-257) [nM]	GI50 (A498) [nM]	CC50 (Ovarian) [nM]	Log10 TGI (concentration in mol/L causing total growth inhibition (0% growth)) (Ovarian) [mol/L]	GI50 (NCI-H460) [nM]	GI50 (human tumor cell lines; [1]) [nM]	GI50 (human tumor cell lines; [2]) [nM]	cytotoxicity (human tumor cell lines)	Log10 TGI mean graph midpoint (MG_MID) (human tumor cell lines; against human tumor cell lines)	LC50 (human tumor cell lines; against human tumor cell lines) [nM]	GI50 (HOP-62) [nM]	GI50 (HS 578T) [nM]	GI50 (KM12) [nM]	also measured
COc1cc(-c2cc(/C=C/C(=O)c3ccc(Cl)c(Cl)c3)[nH]n2)cc(OC)c1OC [12e, (E)-1-(3,4-dichlorophenyl)-3-(3-(3,4,5-trimethoxyphenyl)-1H-pyrazol-5-yl)prop-2-en-1-one]	390	8650	1980	13700	9560	20500	8630	16300	5890	95500	−4.27	4900	180 to 29200	6610	significant cytotoxicity	−4.35	89100	1720	16600	3370	GI50 (Ovarian): 10000 nM; GI50 (A549/ATCC): 18700 nM; GI50 (TK-10): 8340 nM; GI50 (OVCAR-4): 10800 nM; GI50 (SF-268): 13700 nM; GI50 (UACC-62): 18800 nM; GI50 (HOP92): 2530 nM; GI50 (CNS): 8510 nM; LC50 (CNS): 87100 nM; Log10 TGI (concentration in mol/L causing total growth inhibition (0% growth)) (CNS): −4.25 mol/L; GI50 (RPMI-8226): 530 nM; GI50 (NCI-H226): 18600 nM; GI50 (Leukemia): 2090 nM; CC50 (Leukemia): 0.0001 mol/L; Log10 TGI (concentration in mol/L causing total growth inhibition (0% growth)) (Leukemia): −4.61 mol/L; GI50 (NCI-H23): 23400 nM; GI50 (CAKI-1): 16900 nM; GI50 (HCT-15): 4290 nM
COc1cc(-c2cc(/C=C/C(=O)c3ccc4c(c3)OCO4)[nH]n2)cc(OC)c1OC [11e, (E)-1-(benzo[d][1,3]dioxol-5-yl)-3-(3-(3,4,5-trimethoxyphenyl)-1H-pyrazol-5-yl)prop-2-en-1-one]	550	3500	1400	3940	1950	3370	2470	2460	2760	100000	−4.38	2120	180 to 29200	2690	significant cytotoxicity	−4.77	61700	2180	3710	1760	GI50 (DU-145): 2720 nM; Log10 GI50 (concentration in mol/L causing 50% growth inhibition) (Ovarian): −4 mol/L; GI50 (A549/ATCC): 4320 nM; GI50 (TK-10): 2330 nM; GI50 (OVCAR-4): 3800 nM; GI50 (SF-268): 2970 nM; GI50 (UACC-62): 4670 nM; LC50 (CNS): 63100 nM; Log10 GI50 (concentration in mol/L causing 50% growth inhibition) (CNS): −4.2 mol/L; Log10 TGI (concentration in mol/L causing total growth inhibition (0% growth)) (CNS): −4.83 mol/L; GI50 (RPMI-8226): 510 nM; GI50 (NCI-H226): 3310 nM; CC50 (Leukemia): 0.0001 mol/L; Log10 GI50 (concentration in mol/L causing 50% growth inhibition) (Leukemia): −4.91 mol/L; Log10 TGI (concentration in mol/L causing total growth inhibition (0% growth)) (Leukemia): −5.00 mol/L; GI50 (NCI-H23): 2020 nM; GI50 (CAKI-1): 5510 nM; GI50 (HCT-15): 2120 nM
COc1cc(C(=O)/C=C/c2cc(-c3cc(OC)c(OC)c(OC)c3)n[nH]2)cc(OC)c1OC [10e, (E)-1-(3,4,5-trimethoxyphenyl)-3-(3-(3,4,5-trimethoxyphenyl)-1H-pyrazol-5-yl)prop-2-en-1-one]	390	1520	1150	1470	1830	1640	1590	1570	1610	14500	−5.23	1890	180 to 29200	1550	significant cytotoxicity	−5.36	11500	1460	2680	1490	GI50 (Ovarian): 2190 nM; GI50 (A549/ATCC): 2720 nM; GI50 (TK-10): 1460 nM; GI50 (OVCAR-4): 1450 nM; GI50 (SF-268): 1940 nM; GI50 (UACC-62): 1780 nM; GI50 (HOP92): 860 nM; GI50 (CNS): 1620 nM; LC50 (CNS): 7940 nM; Log10 TGI (concentration in mol/L causing total growth inhibition (0% growth)) (CNS): −5.46 mol/L; GI50 (RPMI-8226): 310 nM; GI50 (NCI-H226): 1600 nM; GI50 (Leukemia): 1200 nM; CC50 (Leukemia): 0.0001 mol/L; Log10 TGI (concentration in mol/L causing total growth inhibition (0% growth)) (Leukemia): −4.80 mol/L; GI50 (NCI-H23): 3040 nM; GI50 (CAKI-1): 2580 nM; GI50 (HCT-15): 1500 nM
COc1cc(-c2cc(/C=C/C(=O)c3ccc(F)c(F)c3)[nH]n2)cc(OC)c1OC [13e, (E)-1-(3,4-difluorophenyl)-3-(3-(3,4,5-trimethoxyphenyl)-1H-pyrazol-5-yl)prop-2-en-1-one]	2920	1640	2220	3370	3690	4480	3420	1750	2110	89100	−4.45	2960	180 to 29200	2820	significant cytotoxicity	−4.74	81300	4390	3580	3060	Log10 GI50 (concentration in mol/L causing 50% growth inhibition) (Ovarian): −5.5 mol/L; GI50 (A549/ATCC): 2430 nM; GI50 (TK-10): 2290 nM; GI50 (OVCAR-4): 2200 nM; GI50 (SF-268): 3150 nM; GI50 (UACC-62): 2380 nM; LC50 (CNS): 91200 nM; Log10 GI50 (concentration in mol/L causing 50% growth inhibition) (CNS): −5.47 mol/L; Log10 TGI (concentration in mol/L causing total growth inhibition (0% growth)) (CNS): −4.38 mol/L; GI50 (RPMI-8226): 1760 nM; GI50 (NCI-H226): 3720 nM; CC50 (Leukemia): 0.0001 mol/L; Log10 GI50 (concentration in mol/L causing 50% growth inhibition) (Leukemia): −5.57 mol/L; Log10 TGI (concentration in mol/L causing total growth inhibition (0% growth)) (Leukemia): −4.76 mol/L; GI50 (NCI-H23): 2600 nM; GI50 (CAKI-1): 2980 nM; GI50 (HCT-15): 3010 nM
